Experimental data from PubChem BioAssay (NCI).
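48-hour exposure; five concentrations; linearly interpolated endpoints. At the TGI there is no net growth.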

Columns and labels:
Test in all cases: growth of human tumour cells (NCI), 48 h
OVCAR-5 ovarian = test system: OVCAR-5 ovarian
MALME-3M melanoma = test system: MALME-3M melanoma
HCT-15 colon = test system: HCT-15 colon
HCC-2998 colon = test system: HCC-2998 colon
A549 NSCLC = test system: A549 NSCLC
IGROV1 ovarian = test system: IGROV1 ovarian
CCRF-CEM leukemia = test system: CCRF-CEM leukemia
DMS 114 small cell lung = test system: DMS 114 small cell lung
HL-60(TB) leukemia = test system: HL-60(TB) leukemia
HOP-92 NSCLC = test system: HOP-92 NSCLC
SNB-19 CNS = test system: SNB-19 CNS
SK-OV-3 ovarian = test system: SK-OV-3 ovarian
COLO 205 colon = test system: COLO 205 colon
KM20L2 colon = test system: KM20L2 colon
UO-31 renal = test system: UO-31 renal
LXFL 529 NSCLC = test system: LXFL 529 NSCLC
NCI-H23 lung = test system: NCI-H23 lung
NCI-H226 lung = test system: NCI-H226 lung
UACC-257 melanoma = test system: UACC-257 melanoma
KM12 colon = test system: KM12 colon
LOX IMVI melanoma = test system: LOX IMVI melanoma
HT29 colon = test system: HT29 colon
OVCAR-4 ovarian = test system: OVCAR-4 ovarian
SF-268 CNS = test system: SF-268 CNS
NCI-H522 lung = test system: NCI-H522 lung
M19-MEL melanoma = test system: M19-MEL melanoma
SF-539 CNS = test system: SF-539 CNS
EKVX NSCLC = test system: EKVX NSCLC
DMS 273 small cell lung = test system: DMS 273 small cell lung
U251 CNS = test system: U251 CNS
SR leukemia = test system: SR leukemia
RPMI-8226 leukemia = test system: RPMI-8226 leukemia
SNB-78 CNS = test system: SNB-78 CNS
HOP-62 NSCLC = test system: HOP-62 NSCLC
OVCAR-8 ovarian = test system: OVCAR-8 ovarian
XF 498 CNS = test system: XF 498 CNS
SF-295 CNS = test system: SF-295 CNS
SK-MEL-2 melanoma = test system: SK-MEL-2 melanoma
TK-10 renal = test system: TK-10 renal
786-0 renal = test system: 786-0 renal
SNB-75 CNS = test system: SNB-75 CNS
SK-MEL-28 melanoma = test system: SK-MEL-28 melanoma
SK-MEL-5 melanoma = test system: SK-MEL-5 melanoma
ACHN renal = test system: ACHN renal
MOLT-4 leukemia = test system: MOLT-4 leukemia
A498 renal = test system: A498 renal
M14 melanoma = test system: M14 melanoma
HCT-116 colon = test system: HCT-116 colon
DLD-1 colon = test system: DLD-1 colon
SN12C renal = test system: SN12C renal
OVCAR-3 ovarian = test system: OVCAR-3 ovarian
NCI-H460 lung = test system: NCI-H460 lung

Measured: TGI

CCn1c(CSc2nc(-c3ccccc3)c(-c3ccccc3)[nH]2)n[nH]c1=S
> 100 µM: all assays above
